Results reported in patent publication US20260297108A1, “NOVEL INHIBITORS OF PIKFYVE AND METHODS USING SAME” (priority 2023, published 2026).

Target: PIKFYVE (Homo sapiens, UniProt Q9Y2I7)
Experiment: KINOMEscan Kinase Assay (PIKFYVE inhibitory activity)
Settings: not given

Chain of PIKFYVE (Q9Y2I7 whole entry): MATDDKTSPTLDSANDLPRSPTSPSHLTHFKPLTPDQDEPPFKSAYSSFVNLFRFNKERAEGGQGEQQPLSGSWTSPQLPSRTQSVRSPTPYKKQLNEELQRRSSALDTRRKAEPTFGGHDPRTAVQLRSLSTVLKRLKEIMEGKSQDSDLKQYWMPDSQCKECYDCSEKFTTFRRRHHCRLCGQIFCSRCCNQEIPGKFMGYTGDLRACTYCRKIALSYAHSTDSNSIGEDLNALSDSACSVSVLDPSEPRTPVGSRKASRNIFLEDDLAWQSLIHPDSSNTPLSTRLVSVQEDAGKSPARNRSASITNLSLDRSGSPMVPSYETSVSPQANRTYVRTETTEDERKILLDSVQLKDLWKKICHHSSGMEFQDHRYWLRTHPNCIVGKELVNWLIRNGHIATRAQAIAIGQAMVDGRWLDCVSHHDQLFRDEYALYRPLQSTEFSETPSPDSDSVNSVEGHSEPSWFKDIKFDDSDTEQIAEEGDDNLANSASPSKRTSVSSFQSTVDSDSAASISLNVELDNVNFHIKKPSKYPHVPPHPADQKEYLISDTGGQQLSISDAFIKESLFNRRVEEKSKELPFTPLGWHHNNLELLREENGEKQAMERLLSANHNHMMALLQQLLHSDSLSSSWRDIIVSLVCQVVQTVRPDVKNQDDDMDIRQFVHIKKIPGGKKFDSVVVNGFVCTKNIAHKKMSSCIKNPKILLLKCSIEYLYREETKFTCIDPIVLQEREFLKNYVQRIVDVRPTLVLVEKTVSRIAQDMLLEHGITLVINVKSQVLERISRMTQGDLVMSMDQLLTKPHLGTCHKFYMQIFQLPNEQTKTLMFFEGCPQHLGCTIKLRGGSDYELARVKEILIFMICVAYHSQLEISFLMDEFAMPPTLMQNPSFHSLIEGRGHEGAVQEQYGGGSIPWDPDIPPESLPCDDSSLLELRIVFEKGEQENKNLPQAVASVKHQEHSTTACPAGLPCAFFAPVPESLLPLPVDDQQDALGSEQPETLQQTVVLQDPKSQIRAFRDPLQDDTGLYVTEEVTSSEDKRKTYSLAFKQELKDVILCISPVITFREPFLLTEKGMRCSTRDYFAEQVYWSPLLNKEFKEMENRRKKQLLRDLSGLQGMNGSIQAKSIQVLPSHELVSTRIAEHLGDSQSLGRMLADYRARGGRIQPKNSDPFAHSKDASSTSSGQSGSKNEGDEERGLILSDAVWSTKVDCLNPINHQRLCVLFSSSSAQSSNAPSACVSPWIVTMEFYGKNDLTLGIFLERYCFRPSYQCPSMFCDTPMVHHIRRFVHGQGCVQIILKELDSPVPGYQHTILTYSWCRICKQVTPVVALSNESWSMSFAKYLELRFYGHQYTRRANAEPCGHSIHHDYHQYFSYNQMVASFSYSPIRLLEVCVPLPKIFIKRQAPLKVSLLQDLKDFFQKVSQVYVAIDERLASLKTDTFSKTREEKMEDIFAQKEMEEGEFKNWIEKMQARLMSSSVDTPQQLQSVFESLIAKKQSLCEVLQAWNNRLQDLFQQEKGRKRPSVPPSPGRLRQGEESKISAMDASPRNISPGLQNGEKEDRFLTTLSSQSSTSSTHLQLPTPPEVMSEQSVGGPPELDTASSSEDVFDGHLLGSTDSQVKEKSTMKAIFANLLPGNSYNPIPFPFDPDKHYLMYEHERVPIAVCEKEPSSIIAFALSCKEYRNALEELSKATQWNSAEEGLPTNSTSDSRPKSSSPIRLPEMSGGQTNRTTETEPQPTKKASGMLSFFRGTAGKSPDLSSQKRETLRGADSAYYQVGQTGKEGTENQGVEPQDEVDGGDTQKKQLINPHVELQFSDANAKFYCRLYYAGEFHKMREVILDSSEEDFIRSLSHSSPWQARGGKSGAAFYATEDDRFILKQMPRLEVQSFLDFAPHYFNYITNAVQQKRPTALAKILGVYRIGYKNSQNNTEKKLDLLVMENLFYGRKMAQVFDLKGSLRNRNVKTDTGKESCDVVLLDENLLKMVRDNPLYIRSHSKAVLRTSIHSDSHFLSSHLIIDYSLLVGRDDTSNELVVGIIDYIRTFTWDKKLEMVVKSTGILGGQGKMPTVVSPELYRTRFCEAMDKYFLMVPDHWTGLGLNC

Row | SMILES | IC50 [nM]
1 | Cc1cccc(-c2ccn(-c3nc(N4CCOCC4)c4nc(CN5CCN(C(C)C)CC5)[nH]c4n3)n2)c1 [Ex. 40, 4-(8-((4-isopropylpiperazin-1-yl)methyl)-2-(3-(m-tolyl)-1H-pyrazol-1-yl)-9H-purin-6-yl)morpholine] | 1 to 10

Same assay, conditions: read-out: PIKfyve Activity (% inhibition)

Row | SMILES | inhibition at 0.001 µM [%] | inhibition at 0.003 µM [%]
2 | Cc1cccc(-c2ccn(-c3cc(N4CCOCC4)c4nc(C(=O)N5CCN(S(C)(=O)=O)CC5)[nH]c4n3)n2)c1 [Ex. 87] | 20 | –
3 | Cc1cccc(-c2ccn(-c3cc(N4CCOCC4)c4sc(CO)c(C)c4n3)n2)c1 [Ex. 166, (3-Methyl-7-morpholino-5-(3-(m-tolyl)-1H-pyrazol-1-yl)thieno[3,2-b]pyridin-2-yl)methanol] | 34 | 14
4 | Cc1cccc(-c2ccn(-c3cc(N4CCOCC4)c4sc(CN5CCOCC5)c(C)c4n3)n2)c1 [Ex. 167, 4-(3-Methyl-2-(morpholinomethyl)-5-(3-(m-tolyl)-1H-pyrazol-1-yl)thieno[3,2-b]pyridin-7-yl)morpholine] | 7 | –
5 | Cc1cccc(-c2ccn(-c3cc(N4CCOCC4)c4sc(CN5CCN(S(C)(=O)=O)CC5)c(C)c4n3)n2)c1 [Ex. 169, 4-(3-Methyl-2-((4-(methylsulfonyl)piperazin-1-yl)methyl)-5-(3-(m-tolyl)-1H-pyrazol-1-yl)thieno[3,2-b]pyridin-7-yl)morpholine] | – | 47
6 | Cc1cccc(-c2ccn(-c3nc(N4CCOCC4)c4nc(CN5CCC(N(C)C)C(F)C5)n(C)c4n3)n2)c1 (stereo not shown) [Ex. 171, 3-fluoro-N,N-dimethyl-1-((9-methyl-6-morpholino-2-(3-(m-tolyl)-1H-pyrazol-1-yl)-9H-purin-8-yl)methyl)piperidin-4-amine] | – | 22
7 | Brc1ccn(-c2cc(N3CCOCC3)c3sc(CN4CCOCC4)cc3n2)n1 [Ex. 173, 4-(5-(3-Bromo-1H-pyrazol-1-yl)-2-(morpholinomethyl)thieno[3,2-b]pyridin-7-yl)morpholine] | 18 | –

Same assay, conditions: read-out: PIKfyve Activity (PIKfyve % inhibition)

Row | SMILES | inhibition at 0.001 µM [%]
8 | Cc1cccc(-c2ccn(-c3nc(N4CCOCC4)c4nc(C(=O)N5CCN(S(C)(=O)=O)CC5)[nH]c4n3)n2)c1 [Ex. 78] | 52 to 100
9 | Cc1cccc(-c2ccn(-c3cc(N4CCOCC4)c4nc(CN5CCN(C(C)C)CC5)n(C)c4n3)n2)c1 [Ex. 79, 4-(2-((4-isopropylpiperazin-1-yl)methyl)-3-methyl-5-(3-(m-tolyl)-1H-pyrazol-1-yl)-3H-imidazo[4,5-b]pyridin-7-yl)morpholine] | 52 to 100
10 | Cc1cccc(-c2ccn(-c3cc(N4CCOCC4)c4nc(CN5CCC(N(C)C)C(F)C5)n(C)c4n3)n2)c1 (stereo not shown) [Ex. 82, 3-fluoro-N,N-dimethyl-1-((3-methyl-7-morpholino-5-(3-(m-tolyl)-1H-pyrazol-1-yl)-3H-imidazo[4,5-b]pyridin-2-yl)methyl)piperidin-4-amine] | 52 to 100
11 | Cc1cccc(-c2ccn(-c3cc(N4CCOCC4)c4nc(CN5CCC(N6CCC6)C(F)C5)n(C)c4n3)n2)c1 (stereo not shown) [Ex. 83, 4-(2-((4-(azetidin-1-yl)-3-fluoropiperidin-1-yl)methyl)-3-methyl-5-(3-(m-tolyl)-1H-pyrazol-1-yl)-3H-imidazo[4,5-b]pyridin-7-yl)morpholine] | 52 to 100
12 | Cc1cccc(-c2ccn(-c3nc(N4CCOCC4)c4nc(C(=O)N5CCC(N6CCC6)C(F)C5)[nH]c4n3)n2)c1 (stereo not shown) [Ex. 85, (4-(Azetidin-1-yl)-3-fluoropiperidin-1-yl) (6-morpholino-2-(3-(m-tolyl)-1H-pyrazol-1-yl)-9H-purin-8-yl)methanone] | 52 to 100
13 | Cc1cccc(-c2ccn(-c3nc(N4CCOCC4)c4nc(C(=O)N5CCN(C(C)C)CC5)[nH]c4n3)n2)c1 [Ex. 86] | 52 to 100
14 | Cc1cccc(-c2ccn(-c3cc(N4CCOCC4)c4nc(C(=O)N5CCC(N6CCC6)C(F)C5)[nH]c4n3)n2)c1 (stereo not shown) [Ex. 89] | 52 to 100
15 | Cc1cccc(-c2ccn(-c3cc(N4CCOCC4)c4sc(CN5CCN(C(C)C)CC5)c(C)c4n3)n2)c1 [Ex. 132, 4-(2-((4-Isopropylpiperazin-1-yl)methyl)-3-methyl-5-(3-(m-tolyl)-1H-pyrazol-1-yl)thieno[3,2-b]pyridin-7-yl)morpholine] | 52 to 100
